Laboratory results from US20040176431A1, “Antiproliferative 2-(sulfo-phenyl)-aminothiazole derivatives and pharmaceutical compositions, and methods for their use” (Pfizer, Inc., priority 2003, published 2004).

Tests used:
HCT-116 cells = experiment: Inhibition of cell growth (MTT tetrazolium salt assay); assay type: cell-based; conditions: Homo sapiens; for IC50: read-out: HCT116 IC50; for IC90: read-out: HCT116 IC90
How it was run: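 HCT-116 cells in McCoy's 5A were pre-incubated 4 h, then exposed to compounds in 0.5% DMSO for 4–6 days at 37 °C. MTT at 0.2 mg/mL final was added for 4 h and DMSO-solubilized formazan read at 540 nm. Values are relative to 0.5% DMSO-only controls.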

CDK2/cyclin A = target: T1, CDK2/cyclin A (Homo sapiens, UniProt P24941); experiment: Inhibition of CDK2/Cyclin A retinoblastoma kinase activity; assay type: biochemical; conditions: apparent Ki, Rb fragment substrate
T1 construct: made in house; host or cells: CDK2: insect cells (baculovirus); cyclin A: E. coli, then limited proteolysis
How it was run: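 Radiometric [32/33P]ATP transfer to an Rb fragment by CDK2 (insect cell, 10 or 19 nM) complexed with proteolyzed cyclin A; pH 7.4 HEPES, 25 μM ATP, 2% DMSO, 30 °C, 60 or 75 min, filter capture. Apparent Ki from competitive or tight-binding inhibition fits.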

CDK4/cyclin D3 = target: T2, CDK4/cyclin D3 (Homo sapiens, UniProt P11802); experiment: Inhibition of CDK4/Cyclin D retinoblastoma kinase activity; assay type: biochemical; conditions: apparent Ki, Rb fragment substrate
T2 construct: made in house; host or cells: insect cells (baculovirus co-infection)
How it was run: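 Human CDK4 with truncated cyclin D3 (1-264) from baculovirus-infected insect cells, 5 nM, phosphorylating His-tagged Rb fragment (386-928) with 25 μM [32P/33P]ATP in pH 7.4 HEPES/MgCl2, 2% DMSO, 30° C., 20 min (60 min for tight binders). Filter capture, phosphorimager; apparent Ki from competitive or tight-binding competitive fits.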

CDK1 (cdc2)/cyclin B = target: T3, CDK1 (cdc2)/cyclin B (Homo sapiens, UniProt P06493); experiment: Inhibition of CDK1(cdc2)/Cyclin B histone H1 kinase activity; assay type: biochemical; conditions: apparent Ki, histone H1 substrate
T3 construct: purchased New England Biolabs (Beverly Mass.)
Method: Cyclin-dependent kinase activity was measured by quantifying the enzyme-catalyzed, time-dependent incorporation of radioactive phosphate from [^32P]ATP or [^33P]ATP into a protein substrate. Unless noted otherwise, assays were performed in 96-well plates in a total volume of 50 μL, in the presence of 10 mM HEPES (N-[2-hydroxyethyl]piperazine-N′-[2-ethanesulfonic acid]) (pH 7.4), 10 mM MgCl2, 25 μM adenosine triphosphate (ATP), 1 mg/mL ovalbumin, 5 μg/mL leupeptin, 1 mM dithiothreitol, 10 mM β-glycerophosphate, 0.1 mM sodium vanadate, 1 mM sodium fluoride, 2.5 mM ethylene glycol-bis(β-aminoethyl ether)-N,N,N′N′-tetraacetic acid (EGTA), 2% (v/v) dimethylsulfoxide, and 0.03-0.4 μCi [^32/33P]ATP per reaction. Reactions were initiated with enzyme, incubated at 30° C., and terminated after 20 minutes by the addition of ethylenediaminetetraacetic acid (EDTA) to 250 mM. The phosphorylated substrate was then captured on a nitrocellulose or phosphocellulose membrane using a 96-well filtration manifold, and unincorporated radioactivity was removed by repeated washing with 0.85% phosphoric acid. Radioactivity was quantified by exposing the dried membranes to a phosphorimager.
Inhibition was measured relative to control wells that contained all reaction components including 2% (v/v) DMSO but no compound, after subtraction of background radioactivity measured in the absence of enzyme. Apparent Ki values of discrete compounds were measured by assaying enzyme activity in the presence of different inhibitor compound concentrations and subtracting the background radioactivity measured in the absence of enzyme. The kinetic parameters (kcat, Km for ATP) were measured for each enzyme under the usual assay conditions by determining the dependence of initial rates on ATP concentration. […]
The complex of human CDK1 (cdc2) and cyclin B was purchased from New England Biolabs (Beverly Mass.). […] Phosphorylated histone substrate was captured by microfiltration on a phosphocellulose P81 membrane and quantified using a phosphorimager as described above.

T2 sequence (P11802 whole entry, the tested form may be a part): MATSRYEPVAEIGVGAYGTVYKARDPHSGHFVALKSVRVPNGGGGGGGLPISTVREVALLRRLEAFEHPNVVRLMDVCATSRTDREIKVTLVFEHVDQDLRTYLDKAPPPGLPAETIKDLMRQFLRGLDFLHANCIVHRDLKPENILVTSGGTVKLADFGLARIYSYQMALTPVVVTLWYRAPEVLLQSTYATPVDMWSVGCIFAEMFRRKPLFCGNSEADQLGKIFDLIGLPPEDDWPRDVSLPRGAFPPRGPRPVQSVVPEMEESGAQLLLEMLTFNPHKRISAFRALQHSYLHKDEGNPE
T2 sequence (P30281 1-264 partner limits assumed): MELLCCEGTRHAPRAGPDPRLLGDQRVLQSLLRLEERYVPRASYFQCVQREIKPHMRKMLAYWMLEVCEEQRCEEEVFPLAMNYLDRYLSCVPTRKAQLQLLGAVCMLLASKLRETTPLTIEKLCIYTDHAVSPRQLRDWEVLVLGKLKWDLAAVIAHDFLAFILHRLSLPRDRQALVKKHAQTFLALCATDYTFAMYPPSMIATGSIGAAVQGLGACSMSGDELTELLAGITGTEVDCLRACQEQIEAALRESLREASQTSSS
T3 sequence (P06493 whole entry): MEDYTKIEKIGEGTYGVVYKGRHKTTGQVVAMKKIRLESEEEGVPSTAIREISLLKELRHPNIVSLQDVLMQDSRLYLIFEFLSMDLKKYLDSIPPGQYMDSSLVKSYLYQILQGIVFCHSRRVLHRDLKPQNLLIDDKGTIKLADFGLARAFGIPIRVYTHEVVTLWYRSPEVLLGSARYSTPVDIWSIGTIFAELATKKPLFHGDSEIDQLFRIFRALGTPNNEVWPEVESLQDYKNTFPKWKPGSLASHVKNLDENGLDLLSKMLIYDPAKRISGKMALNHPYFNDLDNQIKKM
T3 sequence (P14635 whole entry partner): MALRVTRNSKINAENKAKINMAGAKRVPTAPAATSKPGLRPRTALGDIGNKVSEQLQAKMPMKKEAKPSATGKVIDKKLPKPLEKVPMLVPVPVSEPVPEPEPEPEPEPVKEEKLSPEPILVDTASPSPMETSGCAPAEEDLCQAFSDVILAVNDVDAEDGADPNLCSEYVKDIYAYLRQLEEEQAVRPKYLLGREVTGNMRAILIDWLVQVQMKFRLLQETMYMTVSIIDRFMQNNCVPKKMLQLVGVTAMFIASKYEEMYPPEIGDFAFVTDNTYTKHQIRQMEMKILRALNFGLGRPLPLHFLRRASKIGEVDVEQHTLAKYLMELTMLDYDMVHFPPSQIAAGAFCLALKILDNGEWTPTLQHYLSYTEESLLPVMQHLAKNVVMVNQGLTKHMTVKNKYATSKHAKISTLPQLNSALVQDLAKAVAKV

| Compound | IC50 (HCT-116 cells) | IC90 (HCT-116 cells) | Ki (CDK2/cyclin A) | Ki (CDK4/cyclin D3) | Ki (CDK1 (cdc2)/cyclin B) |
| --- | --- | --- | --- | --- | --- |
| CS(=O)(=O)c1ccc(Nc2nc(N)c(C(=O)c3c(Cl)cccc3Cl)s2)cc1 [AA(2), 4-Amino-5-(2,6-dichlorobenzoyl)-2-(4-methanesulfonyl-phenylamino)-thiazole] | 4500 nM | 18000 nM | 138 nM | 42 nM | 93 nM |
| Cc1ccc(CNS(=O)(=O)c2ccc(Nc3nc(N)c(C(=O)c4c(F)cccc4F)s3)cc2)o1 [Example A(11), 4-[4-Amino-5-(2,6-difluoro-benzoyl)-thiazol-2-ylamino]-N-(5-methyl-furan-2-ylmethyl)-benzenesulfonamide] | 43 nM | 140 nM | < 5 nM | 28 nM | 3.9 nM |
| C[S+]([O-])c1ccc(Nc2nc(N)c(C(=O)c3c(Cl)cccc3Cl)s2)cc1 (stereo not drawn) [Z(4), 4-Amino-5-(2,6-dichlorobenzoyl)-2-(4-methanesulfinyl-phenylamino)-thiazole] | 4000 nM | 12000 nM | 303 nM | 38 nM | 120 nM |
